Test results reported in ChEMBL document CHEMBL1201862, “PubChem BioAssay data set” (2004).
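Following 48 hours of exposure in 96-well plates, responses at five concentrations were used to interpolate endpoints linearly. GI50: concentration for 50% inhibition of growth.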 The source made the active and inactive calls. No stated cut-off is given here; in the data, active = GI50 up to about 1.1 µM and inactive = higher.

Key:
Experiment in all cases: NCI-60 cell line screen, 48 h
U-251 = test system: U-251
OVCAR-8 = test system: OVCAR-8
UACC-62 = test system: UACC-62
HOP-62 = test system: HOP-62
SR = test system: SR
SW-620 = test system: SW-620
HCT-116 = test system: HCT-116
SK-MEL-2 = test system: SK-MEL-2
SK-MEL-5 = test system: SK-MEL-5
UO-31 = test system: UO-31
LOX IMVI = test system: LOX IMVI
A549 = test system: A549
RPMI-8226 = test system: RPMI-8226
T47D = test system: T47D
SK-OV-3 = test system: SK-OV-3
ACHN = test system: ACHN
TK-10 = test system: TK-10
COLO 205 = test system: COLO 205
IGROV-1 = test system: IGROV-1
Hs-578T = test system: Hs-578T

| SMILES | GI50 (U-251) | GI50 (OVCAR-8) | GI50 (UACC-62) | GI50 (HOP-62) | GI50 (SR) | GI50 (SW-620) | GI50 (HCT-116) | GI50 (SK-MEL-2) | GI50 (SK-MEL-5) | GI50 (UO-31) | GI50 (LOX IMVI) | GI50 (A549) | GI50 (RPMI-8226) | GI50 (T47D) | GI50 (SK-OV-3) | GI50 (ACHN) | GI50 (TK-10) | GI50 (COLO 205) | GI50 (IGROV-1) | GI50 (Hs-578T) |
| --- | --- | --- | --- | --- | --- | --- | --- | --- | --- | --- | --- | --- | --- | --- | --- | --- | --- | --- | --- | --- |
| CCN(CC)CCCn1c(=O)c2ccccc2n2c3c(=O)n(C)c(=O)n(C)c3nc12 | 3.03 µM (inactive) | 5.08 µM (inactive) | 4.3 µM (inactive) | 2.77 µM (inactive) | 0.394 µM (active) | 3.42 µM (inactive) | 4.65 µM (inactive) | 18.3 µM (inactive) | 2.22 µM (inactive) | 4.47 µM (inactive) | 3.03 µM (inactive) | 0.959 µM (active) | 4.66 µM (inactive) | 17.1 µM (inactive) | 3.37 µM (inactive) | 1.34 µM (inactive) | 15.8 µM (inactive) | 5.09 µM (inactive) | 6.58 µM (inactive) | 14 µM (inactive) |
| COc1cc2c(OC)c(c1)CCCC1=CC(=O)C=C(CCC2)C1=O | 40.1 µM (inactive) | 20.4 µM (inactive) | 31.8 µM (inactive) | 78.7 µM (inactive) | 3.54 µM (inactive) | 32.1 µM (inactive) | 17.1 µM (inactive) | – | 30.3 µM (inactive) | 43.9 µM (inactive) | 16.6 µM (inactive) | 58.7 µM (inactive) | 7.6 µM (inactive) | 23.2 µM (inactive) | 56.9 µM (inactive) | 47.5 µM (inactive) | > 100 µM (inactive) | 21.9 µM (inactive) | 40.8 µM (inactive) | 30.9 µM (inactive) |
| COc1cc(OCc2ccc3nc(OC)c(OC)nc3c2)cc(OC)c1OC | > 10 µM (inactive) | > 10 µM (inactive) | > 10 µM (inactive) | > 10 µM (inactive) | > 10 µM (inactive) | > 10 µM (inactive) | > 10 µM (inactive) | – | > 10 µM (inactive) | > 10 µM (inactive) | > 10 µM (inactive) | > 10 µM (inactive) | > 10 µM (inactive) | > 10 µM (inactive) | > 10 µM (inactive) | > 10 µM (inactive) | > 10 µM (inactive) | > 10 µM (inactive) | > 10 µM (inactive) | > 10 µM (inactive) |
| O=C1C2CC=CCC2C(=O)N1n1c(-c2ccccc2)n[nH]c1=O (stereo unspecified) | > 100 µM (inactive) | > 100 µM (inactive) | > 100 µM (inactive) | > 100 µM (inactive) | > 100 µM (inactive) | > 100 µM (inactive) | > 100 µM (inactive) | > 100 µM (inactive) | > 100 µM (inactive) | > 100 µM (inactive) | > 100 µM (inactive) | > 100 µM (inactive) | > 100 µM (inactive) | > 100 µM (inactive) | > 100 µM (inactive) | > 100 µM (inactive) | > 100 µM (inactive) | > 100 µM (inactive) | > 100 µM (inactive) | > 100 µM (inactive) |
| CO/C=C(/C(=O)OC)c1ccccc1COc1cccc(C(F)(F)F)c1 | 3.22 µM (inactive) | 8.69 µM (inactive) | 0.638 µM (active) | 12.6 µM (inactive) | 0.646 µM (active) | – | 2.4 µM (inactive) | 11.6 µM (inactive) | 0.473 µM (active) | 4.17 µM (inactive) | 1.16 µM (inactive) | 2.91 µM (inactive) | 0.408 µM (active) | 15 µM (inactive) | 27.9 µM (inactive) | 3.63 µM (inactive) | 3.18 µM (inactive) | 6.61 µM (inactive) | 4.57 µM (inactive) | 10.3 µM (inactive) |
| CN(C)c1ccc(C(=NNC(=O)c2cc3ccccc3[nH]2)c2ccc(N(C)C)cc2)cc1 | 0.348 µM (active) | 0.608 µM (active) | 0.409 µM (active) | 1.77 µM (inactive) | < 0.033 µM (active) | 0.299 µM (active) | 0.422 µM (active) | 0.171 µM (active) | 0.407 µM (active) | 0.942 µM (active) | 0.811 µM (active) | 0.637 µM (active) | 0.321 µM (active) | > 23.8 µM (inactive) | 1.62 µM (inactive) | 1.1 µM (active) | 4.56 µM (inactive) | 0.305 µM (active) | 0.395 µM (active) | 0.359 µM (active) |
| Cc1c2cnccc2nc2[nH]c3ccncc3c12 | 4.68 µM (inactive) | 6.98 µM (inactive) | 7 µM (inactive) | 2.17 µM (inactive) | 2.79 µM (inactive) | 3.93 µM (inactive) | – | 11.4 µM (inactive) | 5.69 µM (inactive) | 4.08 µM (inactive) | 2.29 µM (inactive) | 2.94 µM (inactive) | 2.24 µM (inactive) | 12.4 µM (inactive) | 21.5 µM (inactive) | 1.59 µM (inactive) | 3.95 µM (inactive) | 8.49 µM (inactive) | 2.85 µM (inactive) | 16.6 µM (inactive) |
